Measurements from ChEMBL document CHEMBL5034013, “Discovery of VNRX-7145 (VNRX-5236 Etzadroxil): An Orally Bioavailable β-Lactamase Inhibitor for Enterobacterales Expressing Ambler Class A, C, and D Enzymes” (J Med Chem, 2021).

Experiments:
[1] = Drug metabolism in rabbit hepatocytes assessed as (R)-2-hydroxy-3-propionamido-3,4-dihydro-2H-benzo[e][1,2]oxaborinine-8-carboxylic acid formation at 2 to 20 uM incubated for 240 mins by UPLC-HR-MS/MS analysis; format: ADME, cell-based, Oryctolagus cuniculus, Hepatocyte; settings: 4 h, dose 2-20 µM
[2] = Metabolic stability in CD-1 mouse liver S9 fraction assessed as half life measured at 3 uM after 2 hrs in presence of NADPH by UPLC-MS/MS analysis; format: ADME, subcellular; settings: s9, 2 h
[3] = Drug metabolism in mouse hepatocytes assessed as (R)-2-hydroxy-3-propionamido-3,4-dihydro-2H-benzo[e][1,2]oxaborinine-8-carboxylic acid formation at 2 to 20 uM incubated for 240 mins by UPLC-HR-MS/MS analysis; format: ADME, cell-based, Hepatocyte; settings: 4 h, dose 2-20 µM
[4] = Metabolic stability in Beagle dog plasma assessed as half life at 3 uM measured after 2 hrs by UPLC-MS/MS analysis; format: ADME, cell-free, Canis lupus familiaris
[5] = Metabolic stability in human plasma assessed as half life at 3 uM measured after 2 hrs by UPLC-MS/MS analysis; format: ADME, cell-free
[6] = Metabolic stability in Sprague-Dawley rat intestinal S9 fraction assessed as half life at 3 uM measured after 2 hrs in presence of NADPH by UPLC-MS/MS analysis; format: ADME, subcellular, Intestine; settings: s9, 2 h
[7] = Metabolic stability in Cynomolgus monkey liver S9 fraction assessed as half life at 3 uM measured after 2 hrs in presence of NADPH by UPLC-MS/MS analysis; format: ADME, subcellular, Macaca fascicularis; settings: s9, 2 h
[8] = Metabolic stability in Sprague-Dawley rat plasma assessed as half life at 3 uM measured after 2 hrs by UPLC-MS/MS analysis; format: ADME, cell-free
[9] = Metabolic stability in human intestinal S9 fraction assessed as half life at 3 uM measured after 2 hrs in presence of NADPH by UPLC-MS/MS analysis; format: ADME, subcellular, Intestine; settings: s9, 2 h
[10] = Metabolic stability in CD-1 mouse plasma assessed as half life at 3 uM measured after 2 hrs by UPLC-MS/MS analysis; format: ADME, cell-free
[11] = Metabolic stability in Cynomolgus monkey liver S9 fraction assessed as half life at 3 uM measured after 2 hrs in absence of NADPH by UPLC-MS/MS analysis; format: ADME, subcellular, Macaca fascicularis; settings: s9, 2 h
[12] = Drug metabolism in Cynomolgus monkey hepatocytes assessed as (R)-2-hydroxy-3-propionamido-3,4-dihydro-2H-benzo[e][1,2]oxaborinine-8-carboxylic acid formation at 2 to 20 uM incubated for 240 mins by UPLC-HR-MS/MS analysis; format: ADME, cell-based, Macaca fascicularis, Hepatocyte; settings: 4 h, dose 2-20 µM
[13] = Metabolic stability in Cynomolgus monkey intestinal S9 fraction assessed as half life at 3 uM measured after 2 hrs in absence of NADPH by UPLC-MS/MS analysis; format: ADME, subcellular, Macaca fascicularis, Intestine; settings: s9, 2 h
[14] = Metabolic stability in Sprague-Dawley rat intestinal S9 fraction assessed as half life at 3 uM measured after 2 hrs in absence of NADPH by UPLC-MS/MS analysis; format: ADME, subcellular, Intestine; settings: s9, 2 h
[15] = Metabolic stability in Beagle dog liver S9 fraction assessed as half life at 3 uM measured after 2 hrs in presence of NADPH by UPLC-MS/MS analysis; format: ADME, subcellular, Canis lupus familiaris; settings: s9, 2 h
[16] = Apparent permeability across basolateral to apical side in human Caco-2 cells at 5 uM measured after 2 hrs by LC-MS/MS method; format: ADME, cell-based; settings: caco-2, 2 h
[17] = Metabolic stability in CD-1 mouse liver S9 fraction assessed as half life measured at 3 uM after 2 hrs in absence of NADPH by UPLC-MS/MS analysis; format: ADME, subcellular; settings: s9, 2 h
[18] = Apparent permeability across apical to basolateral side in human Caco-2 cells at 5 uM measured after 2 hrs by LC-MS/MS method; format: ADME, cell-based; settings: caco-2, 2 h
[19] = Metabolic stability in Cynomolgus monkey plasma assessed as half life at 3 uM measured after 2 hrs by UPLC-MS/MS analysis; format: ADME, cell-free, Macaca fascicularis
[20] = Metabolic stability in Sprague-Dawley rat liver S9 fraction assessed as half life at 3 uM measured after 2 hrs in absence of NADPH by UPLC-MS/MS analysis; format: ADME, subcellular; settings: s9, 2 h
[21] = Drug metabolism in rat hepatocytes assessed as (R)-2-hydroxy-3-propionamido-3,4-dihydro-2H-benzo[e][1,2]oxaborinine-8-carboxylic acid formation at 2 to 20 uM incubated for 240 mins by UPLC-HR-MS/MS analysis; format: ADME, cell-based, Hepatocyte; settings: 4 h, dose 2-20 µM
[22] = Metabolic stability in Sprague-Dawley rat liver S9 fraction assessed as half life at 3 uM measured after 2 hrs in presence of NADPH by UPLC-MS/MS; format: ADME, subcellular; settings: s9, 2 h
[23] = Metabolic stability in human intestinal S9 fraction assessed as half life at 3 uM measured after 2 hrs in absence of NADPH by UPLC-MS/MS analysis; format: ADME, subcellular, Intestine; settings: s9, 2 h
[24] = Metabolic stability in CD-1 mouse intestinal S9 fraction assessed as half life measured at 3 uM after 2 hrs in absence of NADPH by UPLC-MS/MS analysis; format: ADME, subcellular, Intestine; settings: s9, 2 h
[25] = Metabolic stability in Beagle dog intestinal S9 fraction assessed as half life at 3 uM measured after 2 hrs in presence of NADPH by UPLC-MS/MS analysis; format: ADME, subcellular, Canis lupus familiaris, Intestine; settings: s9, 2 h
[26] = Metabolic stability in Beagle dog liver S9 fraction assessed as half life at 3 uM measured after 2 hrs in absence of NADPH by UPLC-MS/MS analysis; format: ADME, subcellular, Canis lupus familiaris; settings: s9, 2 h
[27] = Drug metabolism in human hepatocytes assessed as (R)-2-hydroxy-3-propionamido-3,4-dihydro-2H-benzo[e][1,2]oxaborinine-8-carboxylic acid formation at 2 to 20 uM incubated for 240 mins by UPLC-HR-MS/MS analysis; format: ADME, cell-based, Hepatocyte; settings: 4 h, dose 2-20 µM
[28] = Drug metabolism in Beagle dog hepatocytes assessed as (R)-2-hydroxy-3-propionamido-3,4-dihydro-2H-benzo[e][1,2]oxaborinine-8-carboxylic acid formation at 2 to 20 uM incubated for 240 mins by UPLC-HR-MS/MS analysis; format: ADME, cell-based, Canis lupus familiaris, Hepatocyte; settings: 4 h, dose 2-20 µM
[29] = Metabolic stability in human liver S9 fraction assessed as half life at 3 uM measured after 2 hrs in presence of NADPH by UPLC-MS/MS analysis; format: ADME, subcellular; settings: s9, 2 h
[30] = Metabolic stability in Cynomolgus monkey intestinal S9 fraction assessed as half life at 3 uM measured after 2 hrs in presence of NADPH by UPLC-MS/MS analysis; format: ADME, subcellular, Macaca fascicularis, Intestine; settings: s9, 2 h
[31] = Metabolic stability in Beagle dog intestinal S9 fraction assessed as half life at 3 uM measured after 2 hrs in absence of NADPH by UPLC-MS/MS analysis; format: ADME, subcellular, Canis lupus familiaris, Intestine; settings: s9, 2 h
[32] = Efflux ratio of apparent permeability from basolateral to apical side over apical to basolateral side in human Caco-2 cells at 5 uM measured after 2 hrs by LC-MS/MS method; format: ADME, cell-based; settings: caco-2, 2 h

With `CCC(=O)N[C@H]1Cc2cccc(C(=O)OCOC(=O)C(CC)CC)c2OB1O` [LEDABORBACTAM ETZADROXIL] the Drug metabolism [1] was “Metabolite_Detected”, the t1/2 [2] was 1.2 min and the Drug metabolism [3] was “Metabolite_Detected”. For the same compound, the t1/2 [4] was 43.9 min, the t1/2 [5] was 10.7 min and the t1/2 [6] was 3.9 min. It also gave a t1/2 [7] of 0.8 min, a t1/2 [8] of 1.6 min and a t1/2 [9] of 2.9 min. For the same compound, the t1/2 [10] was 4.6 min, the t1/2 [11] was 0.9 min and the Drug metabolism [12] was “Metabolite_Detected”. For the same compound, the t1/2 [13] was 10.1 min, the t1/2 [14] was 4 min and the t1/2 [15] was 0.5 min. The Papp [16] was 29.4 10^-6 cm/s, the t1/2 [17] was 1.3 min and the Papp [18] was 9.22 10^-6 cm/s. For the same compound, the t1/2 [19] was 22 min, the t1/2 [20] was 2.8 min and the Drug metabolism [21] was “Metabolite_Detected”. It also gave a t1/2 [22] of 2.3 min, a t1/2 [23] of 3.3 min and a t1/2 [24] of 1.1 min. For the same compound, the t1/2 [25] was 49 min, the t1/2 [26] was 0.7 min and the Drug metabolism [27] was “Metabolite_Detected”. For the same compound, the Drug metabolism [28] was “Metabolite_Detected”, the t1/2 [29] was 1 min and the t1/2 [30] was 11.2 min. For the same compound, the t1/2 [31] was 119 min and the Ratio [32] was 3.2.
